Values quoted from earlier work as cited in patent publication EP4810022A1, “MICROPARTICLES COMPRISING TIRZEPATIDE OR PHARMACEUTICALLY ACCEPTABLE SALT THEREOF, AND MANUFACTURING METHOD THEREFOR” (Inventage Lab Inc., priority 2024, dated 2025).

What was measured:
[1] = reported
[2] = when taken for one year

Row | Compound | side effects [1] | body weight loss [2]
1 | CC(C)CC(N(C)C)C1(c2ccc(Cl)cc2)CCC1 (stereo not drawn) [sibutramine] | cardiovascular side effects | –
2 | CCCCCCCCCCC[C@@H](C[C@@H]1OC(=O)[C@H]1CCCCCC)OC(=O)[C@H](CC(C)C)NC=O [orlistat] | – | about 4 kg
3 | Cc1c(C(=O)NN2CCCCC2)nn(-c2ccc(Cl)cc2Cl)c1-c1ccc(Cl)cc1 [rimonabant] | central nervous system side effects | –
